Data reported in ChEMBL document CHEMBL3526091, “Pharmacokinetics, metabolism, and excretion of the glycogen synthase kinase-3 inhibitor LY2090314 in rats, dogs, and humans: a case study in rapid clearance by extensive metabolism with low circulating metabolite exposure” (Drug Metab Dispos, 2013).

Columns and labels:
[1] = Volume of distribution at steady state in cancer patient at 120 mg for 60 mins treated 1/8 cycle/day; format: ADME, organism-based; set-up: dosed compound name LY2090314; conditions: human, in vivo, read-out: Vdss
[2] = AUC (0 to infinity) in cancer patient at 40 mg for 60 mins treated 1/8 cycle/day; format: ADME, organism-based; set-up: dose 40 mg, time infinity, dosed compound name LY2090314; conditions: human, plasma
[3] = system: Plasma; assay: Plasma concentration in beagle dog at Tmax; format: ADME, cell-free, Canis lupus familiaris; set-up: dosed compound name [14C]LY2090314
[4] = Drug recovery in bile duct-intact beagle dog assessed as radioactivity in feces during 0 to 48 hrs at 5 mg/kg, iv administered for 30 mins; format: ADME, organism-based, Canis lupus familiaris; set-up: dose 5 mg/kg, dosed compound name [14C]LY2090314, route intravenous; conditions: in vivo
[5] = system: Canis familiaris; assay: Drug recovery in beagle dog cage at 5 mg/kg, iv administered for 30 mins during 0 to 168 hrs time interval by radio analysis; format: ADME, organism-based, Canis lupus familiaris; set-up: dose 5 mg/kg, dosed compound name [14C]LY2090314, route intravenous; conditions: in vivo
[6] = Cmax in cancer patient at 80 mg for 60 mins treated 1/1 cycle/day; format: ADME, organism-based; set-up: dose 80 mg, dosed compound name LY2090314; conditions: human, in vivo
[7] = Half life in cancer patient at 120 mg for 60 mins treated 1/8 cycle/day; format: ADME, organism-based; set-up: dosed compound name LY2090314; conditions: human, in vivo
[8] = system: Plasma; assay: Plasma concentration in beagle dog at 5 mg/kg, iv administered for 30 mins; format: ADME, organism-based, Canis lupus familiaris; set-up: dose 5 mg/kg, dosed compound name [14C]LY2090314, route intravenous; conditions: in vivo, 0.5 h
[9] = Drug recovery in beagle dog urine at 5 mg/kg, iv administered for 30 mins during 0 to 168 hrs time interval by radio analysis; format: ADME, organism-based, Canis lupus familiaris; set-up: dose 5 mg/kg, dosed compound name [14C]LY2090314, route intravenous; conditions: in vivo
[10] = AUC (0 to infinity) in cancer patient at 80 mg for 60 mins treated 1/8 cycle/day; format: ADME, organism-based; set-up: dose 80 mg, time infinity, dosed compound name LY2090314; conditions: human, plasma
[11] = Clearance in cancer patient at 10 mg for 60 mins treated 1/1 cycle/day; format: ADME, organism-based; set-up: dosed compound name LY2090314; conditions: human, in vivo
[12] = Tmax in cancer patient at 80 mg for 60 mins treated 1/1 cycle/day; format: ADME, organism-based; set-up: dosed compound name LY2090314; conditions: human, in vivo
[13] = Volume of distribution at steady state in cancer patient at 120 mg for 60 mins treated 1/1 cycle/day; format: ADME, organism-based; set-up: dosed compound name LY2090314; conditions: human, in vivo, read-out: Vdss
[14] = system: Canis familiaris; assay: Total drug recovery in beagle dog at 5 mg/kg, iv administered for 30 mins during 0 to 24 hrs time interval by radio analysis; format: ADME, organism-based, Canis lupus familiaris; set-up: dose 5 mg/kg, dosed compound name [14C]LY2090314, route intravenous; conditions: in vivo
[15] = Tmax in beagle dog at 5 mg/kg, iv administered for 30 mins; format: ADME, organism-based, Canis lupus familiaris; set-up: dose 5 mg/kg, dosed compound name [14C]LY2090314, route intravenous; conditions: in vivo
[16] = Drug metabolism in Mrp2 knockout Sprague-Dawley rat urine at 5 mg/kg, iv administered for 30 mins; format: ADME, organism-based; set-up: dose 5 mg/kg, dosed compound name LY2090314, route intravenous; conditions: in vivo, 0.5 h
[17] = Clearance in cancer patient at 80 mg for 60 mins treated 1/8 cycle/day; format: ADME, organism-based; set-up: dosed compound name LY2090314; conditions: human, in vivo
[18] = system: Canis familiaris; assay: Total drug recovery in beagle dog at 5 mg/kg, iv administered for 30 mins during 48 hrs time interval by radio analysis; format: ADME, organism-based, Canis lupus familiaris; set-up: dose 5 mg/kg, dosed compound name [14C]LY2090314, route intravenous; conditions: in vivo
[19] = Drug recovery in bile duct-cannulated Sprague-Dawley rat assessed as radioactivity in feces during 0 to 24 hrs at 5 mg/kg, iv administered for 30 mins relative to dosed radioactivity; format: ADME, organism-based; set-up: dose 5 mg/kg, dosed compound name [14C]LY2090314, route intravenous; conditions: in vivo
[20] = Cmax in Sprague-Dawley rat at 5 mg/kg, iv administered for 30 mins; format: ADME, organism-based; set-up: dose 5 mg/kg, dosed compound name [14C]LY2090314, route intravenous; conditions: in vivo
[21] = Half life in cancer patient at 10 mg for 60 mins treated 2/1 cycle/day; format: ADME, organism-based; set-up: dosed compound name LY2090314; conditions: human, in vivo
[22] = Tmax in cancer patient at 60 mg for 60 mins treated 1/8 cycle/day; format: ADME, organism-based; set-up: dosed compound name LY2090314; conditions: human, in vivo
[23] = system: Rattus norvegicus; assay: Total drug recovery in bile duct-cannulated Sprague-Dawley rat at 5 mg/kg, iv administered for 30 mins during 0 to 12 hrs time interval by radio analysis; format: ADME, organism-based; set-up: dose 5 mg/kg, dosed compound name [14C]LY2090314, route intravenous; conditions: in vivo
[24] = system: Canis familiaris; assay: Tmax in beagle dog assessed as total radioactivity at 5 mg/kg, iv administered for 30 mins; format: ADME, organism-based, Canis lupus familiaris; set-up: dose 5 mg/kg, dosed compound name [14C]LY2090314, route intravenous; conditions: in vivo, 0.5 h
[25] = system: Blood; assay: Drug uptake in Sprague-Dawley rat blood at 5 mg/kg, iv administered for 30 mins; format: ADME, organism-based; set-up: dose 5 mg/kg, dosed compound name [14C]LY2090314, route intravenous; conditions: in vivo, 0.5 h
[26] = Drug metabolism in Mdr1a knockout Sprague-Dawley rat urine at 5 mg/kg, iv administered for 30 mins; format: ADME, organism-based; set-up: dose 5 mg/kg, dosed compound name LY2090314, route intravenous; conditions: in vivo, 0.5 h
[27] = Volume of distribution at steady state in cancer patient at 40 mg for 60 mins treated 1/8 cycle/day; format: ADME, organism-based; set-up: dosed compound name LY2090314; conditions: human, in vivo, read-out: Vdss
[28] = Plasma protein binding in rat; format: ADME, cell-free; set-up: dosed compound name [14C]LY2090314; conditions: read-out: PPB (converted)

- Vd [1]: 143 L
- AUC(0-inf) [2]: 938 ng·h/mL
- Compound recovery [3]: 82.8%
- Radiolabel recovery [4]: 4.1%
- Radiolabel recovery [5]: 3.22%
- Cmax [6]: 898 ng/mL
- half-life [7]: 3.05 h
- Compound recovery [8]: 21.4%
- Radiolabel recovery [9]: 20.6%
- AUC(0-inf) [10]: 1830 ng·h/mL
- clearance [11]: 787 mL/min
- Tmax [12]: 1 h
- Vd [13]: 82.1 L
- Radiolabel recovery [14]: 61.5%
- Tmax [15]: 0.5 h
- Drug metabolism [16]: metabolite_detected
- clearance [17]: 765 mL/min
- Radiolabel recovery [18]: 88%
- Radiolabel recovery [19]: 6.75%
- Cmax [20]: 1680 ng/mL
- half-life [21]: 2.44 h
- Tmax [22]: 0.92 h
- Radiolabel recovery [23]: 87%
- Tmax [24]: 0.5 h
- Compound recovery [25]: 83.4%
- Drug metabolism [26]: metabolite_detected
- Vd [27]: 64.1 L
- fraction unbound [28]: 0.02
Compound: O=C1NC(=O)C(c2cnc3ccccn23)=C1c1cn2c3c(cc(F)cc13)CN(C(=O)N1CCCCC1)CC2 [LY-2090314]
